Values belong to the compound of their own block, whether it stands above or below them. The source made the active and inactive calls.
What was measured:
[1] = molecular target: Mitochondrial peptide methionine sulfoxide reductase (Bos taurus, UniProt P54149); experiment: Absorbance-based biochemical high throughput dose response assay for activators of Methionine sulfoxide reductase A (MsrA).; type: functional
[2] = molecular target: Genome polyprotein (dengue virus type 2, UniProt P29990); experiment: flavivirus cap methylation enzyme inhibition – biochemical, confirmation dose response, primary screen (AID 588689); type: functional
[3] = molecular target: 1-phosphatidylinositol 4,5-bisphosphate phosphodiesterase gamma-1 (Homo sapiens, UniProt P19174); experiment: Counterscreen for inhibitors of phospholipase C isozymes (PLC-B3): Fluorescence-based biochemical high throughput dose response assay to identify inhibitors of phospholipase C isozymes (PLC-gamma1).
[4] = molecular target: T1, RNA-binding protein pos-1 (Caenorhabditis elegans, UniProt G5EF15); experiment: disruptors of C. elegans POS-1 RNA interaction – biochemical, fluorescence polarization, dose response (AID 1964);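 further: purified POS-1 fused to maltose binding protein made in E. coli; potency of compounds blocking POS-1 binding to fluorescent RNA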
T1 sequence (G5EF15 whole entry): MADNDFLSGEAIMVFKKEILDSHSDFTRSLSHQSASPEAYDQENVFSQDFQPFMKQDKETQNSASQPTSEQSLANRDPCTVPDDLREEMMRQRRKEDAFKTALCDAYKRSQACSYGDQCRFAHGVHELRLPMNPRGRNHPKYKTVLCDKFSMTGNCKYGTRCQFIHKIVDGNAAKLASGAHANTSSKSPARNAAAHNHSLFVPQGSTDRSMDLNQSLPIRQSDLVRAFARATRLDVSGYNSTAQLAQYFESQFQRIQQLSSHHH

[5] = molecular target: 1-phosphatidylinositol 4,5-bisphosphate phosphodiesterase beta-3 (Homo sapiens, UniProt Q01970); experiment: Fluorescence-based biochemical high throughput dose response assay to identify inhibitors of phospholipase C isozymes (PLC-B3).
[6] = molecular target: Cysteine protease ATG4B (Homo sapiens, UniProt Q9Y4P1); type: functional;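 further: Fluorescence-based dose-response confirmation assay measuring inhibition of ATG4B activity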
[7] = molecular target: Serine/threonine-protein kinase Chk2 (Homo sapiens, UniProt O96017); type: functional;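 further: CHEK2 entry within a kinome-wide screening panel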
Chain of Serine/threonine-protein kinase Chk2 (O96017 whole entry): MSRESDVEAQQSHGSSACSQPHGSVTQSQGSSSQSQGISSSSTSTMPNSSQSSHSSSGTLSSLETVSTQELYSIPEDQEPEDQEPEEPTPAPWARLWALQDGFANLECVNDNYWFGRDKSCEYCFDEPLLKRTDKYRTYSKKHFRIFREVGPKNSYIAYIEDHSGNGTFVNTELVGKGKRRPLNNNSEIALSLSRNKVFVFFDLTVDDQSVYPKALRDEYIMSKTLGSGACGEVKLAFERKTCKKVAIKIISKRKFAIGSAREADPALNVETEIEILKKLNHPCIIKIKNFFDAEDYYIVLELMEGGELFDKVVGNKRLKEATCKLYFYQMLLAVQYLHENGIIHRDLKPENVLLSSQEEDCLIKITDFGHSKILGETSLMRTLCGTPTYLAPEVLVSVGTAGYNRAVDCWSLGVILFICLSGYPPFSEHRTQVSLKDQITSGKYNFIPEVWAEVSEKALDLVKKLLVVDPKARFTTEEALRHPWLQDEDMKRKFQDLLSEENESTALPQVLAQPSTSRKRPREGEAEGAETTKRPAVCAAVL

[8] = molecular target: Interleukin-1 receptor-associated kinase 4 (Homo sapiens, UniProt Q9NWZ3); type: functional
[9] = molecular target: Mast/stem cell growth factor receptor Kit (Homo sapiens, UniProt P10721); type: functional;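 further: KIT entry within a kinase panel assay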
[10] = molecular target: Serine/threonine-protein kinase PAK 4 (Homo sapiens, UniProt O96013); type: functional;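 further: value obtained within a kinome profiling panel in which PAK4 was one of the panel members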
Chain of Serine/threonine-protein kinase PAK 4 (O96013 whole entry): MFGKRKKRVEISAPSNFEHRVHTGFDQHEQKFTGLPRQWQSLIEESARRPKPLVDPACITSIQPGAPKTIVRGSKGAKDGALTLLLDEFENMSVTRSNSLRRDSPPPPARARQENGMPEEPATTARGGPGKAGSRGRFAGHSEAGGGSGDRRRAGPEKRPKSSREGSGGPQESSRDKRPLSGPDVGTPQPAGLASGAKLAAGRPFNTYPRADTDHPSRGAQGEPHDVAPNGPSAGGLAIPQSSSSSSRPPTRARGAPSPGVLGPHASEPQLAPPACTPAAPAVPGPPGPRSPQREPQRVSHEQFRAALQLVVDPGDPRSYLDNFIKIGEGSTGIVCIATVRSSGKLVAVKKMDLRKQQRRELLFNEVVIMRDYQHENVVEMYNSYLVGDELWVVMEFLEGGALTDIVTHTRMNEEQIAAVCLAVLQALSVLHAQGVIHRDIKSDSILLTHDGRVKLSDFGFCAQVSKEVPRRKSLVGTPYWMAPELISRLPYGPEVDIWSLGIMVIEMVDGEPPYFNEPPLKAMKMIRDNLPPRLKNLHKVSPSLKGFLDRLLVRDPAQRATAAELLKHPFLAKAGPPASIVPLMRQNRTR

[11] = molecular target: Mitogen-activated protein kinase 12 (Homo sapiens, UniProt P53778); type: functional;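 further: measured as one member of a kinome-wide kinase profiling panel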
[12] = molecular target: High affinity nerve growth factor receptor (Homo sapiens, UniProt P04629); type: functional;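 further: NTRK1 tested as one member of a kinome-wide profiling panel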
Chain of High affinity nerve growth factor receptor (P04629 whole entry): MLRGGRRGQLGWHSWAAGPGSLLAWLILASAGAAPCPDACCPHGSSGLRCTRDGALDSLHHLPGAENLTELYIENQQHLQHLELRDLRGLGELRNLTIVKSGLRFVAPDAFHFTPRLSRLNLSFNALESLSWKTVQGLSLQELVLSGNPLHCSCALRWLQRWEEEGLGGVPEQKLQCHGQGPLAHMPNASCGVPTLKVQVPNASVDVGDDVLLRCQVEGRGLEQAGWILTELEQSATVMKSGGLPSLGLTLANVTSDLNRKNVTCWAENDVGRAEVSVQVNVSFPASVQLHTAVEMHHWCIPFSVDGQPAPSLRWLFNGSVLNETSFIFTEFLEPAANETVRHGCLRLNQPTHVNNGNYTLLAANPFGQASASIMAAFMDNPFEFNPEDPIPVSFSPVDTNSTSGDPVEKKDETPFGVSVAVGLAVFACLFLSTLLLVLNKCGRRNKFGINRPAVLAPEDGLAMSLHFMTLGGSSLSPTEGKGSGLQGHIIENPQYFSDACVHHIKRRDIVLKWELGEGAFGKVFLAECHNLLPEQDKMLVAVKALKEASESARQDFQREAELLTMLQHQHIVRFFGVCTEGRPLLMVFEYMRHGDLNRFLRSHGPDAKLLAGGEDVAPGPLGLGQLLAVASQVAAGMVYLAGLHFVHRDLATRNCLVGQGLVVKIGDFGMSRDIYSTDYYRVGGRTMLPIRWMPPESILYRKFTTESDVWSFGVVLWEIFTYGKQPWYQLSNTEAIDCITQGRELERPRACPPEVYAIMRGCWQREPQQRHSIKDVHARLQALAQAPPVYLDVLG

[13] = molecular target: MAP kinase-activated protein kinase 2 (Homo sapiens, UniProt P49137); type: functional;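 further: measured as one member of a kinome-wide kinase panel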
[14] = molecular target: Protein kinase C gamma type (Homo sapiens, UniProt P05129); type: functional
[15] = molecular target: Tyrosine-protein kinase JAK2 (Homo sapiens, UniProt O60674); type: functional;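 further: JAK2 tested as one member of a kinase panel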
Chain of Tyrosine-protein kinase JAK2 (O60674 whole entry): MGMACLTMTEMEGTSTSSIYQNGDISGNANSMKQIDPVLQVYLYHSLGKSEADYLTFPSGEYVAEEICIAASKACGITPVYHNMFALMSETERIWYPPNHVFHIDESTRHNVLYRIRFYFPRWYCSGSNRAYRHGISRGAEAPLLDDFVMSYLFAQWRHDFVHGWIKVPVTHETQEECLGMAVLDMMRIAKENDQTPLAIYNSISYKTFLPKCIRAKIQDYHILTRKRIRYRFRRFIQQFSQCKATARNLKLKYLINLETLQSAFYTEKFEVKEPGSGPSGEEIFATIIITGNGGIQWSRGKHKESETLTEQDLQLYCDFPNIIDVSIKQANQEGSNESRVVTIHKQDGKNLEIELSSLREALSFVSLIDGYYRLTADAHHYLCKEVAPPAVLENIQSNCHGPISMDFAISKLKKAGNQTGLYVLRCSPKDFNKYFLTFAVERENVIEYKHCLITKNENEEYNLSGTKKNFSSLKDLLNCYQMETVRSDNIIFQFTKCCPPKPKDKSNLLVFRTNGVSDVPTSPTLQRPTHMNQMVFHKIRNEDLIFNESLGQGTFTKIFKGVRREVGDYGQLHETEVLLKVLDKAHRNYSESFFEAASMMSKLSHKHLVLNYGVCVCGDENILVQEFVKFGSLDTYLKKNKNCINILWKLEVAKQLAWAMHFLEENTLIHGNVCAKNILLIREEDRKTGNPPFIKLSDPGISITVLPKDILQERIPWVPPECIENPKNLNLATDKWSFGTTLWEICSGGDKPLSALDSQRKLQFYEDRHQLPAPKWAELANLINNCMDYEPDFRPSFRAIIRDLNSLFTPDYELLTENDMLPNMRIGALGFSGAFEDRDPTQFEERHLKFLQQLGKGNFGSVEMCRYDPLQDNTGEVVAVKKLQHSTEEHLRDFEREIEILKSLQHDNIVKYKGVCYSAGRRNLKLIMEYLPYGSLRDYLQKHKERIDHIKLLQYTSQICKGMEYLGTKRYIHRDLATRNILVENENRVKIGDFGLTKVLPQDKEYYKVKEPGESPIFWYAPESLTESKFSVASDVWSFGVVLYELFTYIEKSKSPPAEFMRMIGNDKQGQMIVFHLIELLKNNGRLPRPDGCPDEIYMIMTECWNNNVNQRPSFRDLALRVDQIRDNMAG

[16] = molecular target: Proto-oncogene tyrosine-protein kinase Src (Homo sapiens, UniProt P12931); type: functional;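 further: SRC entry within a kinome-wide kinase profiling panel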
Chain of Proto-oncogene tyrosine-protein kinase Src (P12931 2-536 limits assumed): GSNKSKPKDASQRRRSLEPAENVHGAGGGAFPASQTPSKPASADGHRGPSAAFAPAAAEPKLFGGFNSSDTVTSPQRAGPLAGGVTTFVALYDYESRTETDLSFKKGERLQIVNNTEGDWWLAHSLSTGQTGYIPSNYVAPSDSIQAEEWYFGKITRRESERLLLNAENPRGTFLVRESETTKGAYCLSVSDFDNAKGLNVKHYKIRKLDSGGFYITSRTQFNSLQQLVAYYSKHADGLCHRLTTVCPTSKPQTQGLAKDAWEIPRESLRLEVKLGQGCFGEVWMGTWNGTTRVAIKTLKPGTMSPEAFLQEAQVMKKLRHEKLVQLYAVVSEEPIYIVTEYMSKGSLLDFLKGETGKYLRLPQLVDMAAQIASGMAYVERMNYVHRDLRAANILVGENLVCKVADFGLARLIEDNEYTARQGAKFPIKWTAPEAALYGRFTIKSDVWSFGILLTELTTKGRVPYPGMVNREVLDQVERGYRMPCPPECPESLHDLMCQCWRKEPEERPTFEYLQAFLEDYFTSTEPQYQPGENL

[17] = molecular target: Fibroblast growth factor receptor 3 (Homo sapiens, UniProt P22607); type: functional
[18] = molecular target: Tyrosine-protein kinase Blk (Homo sapiens, UniProt P51451); type: functional;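 further: obtained as one member of a kinome-wide kinase assay panel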
[19] = molecular target: Tyrosine-protein kinase Fyn (Homo sapiens, UniProt P06241); type: functional
Chain of Tyrosine-protein kinase Fyn (P06241 whole entry): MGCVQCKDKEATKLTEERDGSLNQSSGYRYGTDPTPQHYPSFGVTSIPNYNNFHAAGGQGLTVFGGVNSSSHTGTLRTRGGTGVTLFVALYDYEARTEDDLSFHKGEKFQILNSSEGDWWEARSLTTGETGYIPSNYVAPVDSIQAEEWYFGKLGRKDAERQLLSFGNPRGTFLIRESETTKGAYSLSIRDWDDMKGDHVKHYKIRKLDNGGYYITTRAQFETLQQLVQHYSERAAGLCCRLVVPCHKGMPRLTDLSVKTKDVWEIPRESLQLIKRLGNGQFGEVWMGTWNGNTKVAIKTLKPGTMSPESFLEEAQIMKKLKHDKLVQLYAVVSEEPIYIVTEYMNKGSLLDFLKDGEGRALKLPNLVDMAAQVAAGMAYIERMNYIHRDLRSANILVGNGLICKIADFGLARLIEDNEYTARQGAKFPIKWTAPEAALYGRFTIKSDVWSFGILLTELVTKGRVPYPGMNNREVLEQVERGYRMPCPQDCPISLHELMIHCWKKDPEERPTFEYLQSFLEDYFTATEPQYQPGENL

[20] = molecular target: cAMP-dependent protein kinase catalytic subunit alpha (Homo sapiens, UniProt P17612); type: functional
[21] = molecular target: Dual specificity mitogen-activated protein kinase kinase 1 (Homo sapiens, UniProt Q02750); experiment: Navigating the Kinome. Panel member name: MAP2K1; type: functional
[22] = molecular target: Leucine-rich repeat serine/threonine-protein kinase 2 (Homo sapiens, UniProt Q5S007); type: functional;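 further: value from a broad kinome-wide panel profiling study in which LRRK2 was one of the kinases tested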
[23] = molecular target: ALK tyrosine kinase receptor (Homo sapiens, UniProt Q9UM73); type: functional;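 further: ALK tested as one member of a kinase panel screen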
[24] = molecular target: Serine/threonine-protein kinase TBK1 (Homo sapiens, UniProt Q9UHD2); experiment: Navigating the Kinome. Panel member name: TBK1; type: functional
[25] = molecular target: Dual specificity protein kinase CLK4 (Homo sapiens, UniProt Q9HAZ1); type: functional
[26] = molecular target: Dual specificity mitogen-activated protein kinase kinase 2 (Homo sapiens, UniProt P36507); experiment: Navigating the Kinome. Panel member name: MAP2K2; type: functional
[27] = molecular target: Mitogen-activated protein kinase kinase kinase kinase 2 (Homo sapiens, UniProt Q12851); type: functional;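 further: measured as one member of a kinome-wide kinase panel, with MAP4K2 as the panel entry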
Chain of Mitogen-activated protein kinase kinase kinase kinase 2 (Q12851 whole entry): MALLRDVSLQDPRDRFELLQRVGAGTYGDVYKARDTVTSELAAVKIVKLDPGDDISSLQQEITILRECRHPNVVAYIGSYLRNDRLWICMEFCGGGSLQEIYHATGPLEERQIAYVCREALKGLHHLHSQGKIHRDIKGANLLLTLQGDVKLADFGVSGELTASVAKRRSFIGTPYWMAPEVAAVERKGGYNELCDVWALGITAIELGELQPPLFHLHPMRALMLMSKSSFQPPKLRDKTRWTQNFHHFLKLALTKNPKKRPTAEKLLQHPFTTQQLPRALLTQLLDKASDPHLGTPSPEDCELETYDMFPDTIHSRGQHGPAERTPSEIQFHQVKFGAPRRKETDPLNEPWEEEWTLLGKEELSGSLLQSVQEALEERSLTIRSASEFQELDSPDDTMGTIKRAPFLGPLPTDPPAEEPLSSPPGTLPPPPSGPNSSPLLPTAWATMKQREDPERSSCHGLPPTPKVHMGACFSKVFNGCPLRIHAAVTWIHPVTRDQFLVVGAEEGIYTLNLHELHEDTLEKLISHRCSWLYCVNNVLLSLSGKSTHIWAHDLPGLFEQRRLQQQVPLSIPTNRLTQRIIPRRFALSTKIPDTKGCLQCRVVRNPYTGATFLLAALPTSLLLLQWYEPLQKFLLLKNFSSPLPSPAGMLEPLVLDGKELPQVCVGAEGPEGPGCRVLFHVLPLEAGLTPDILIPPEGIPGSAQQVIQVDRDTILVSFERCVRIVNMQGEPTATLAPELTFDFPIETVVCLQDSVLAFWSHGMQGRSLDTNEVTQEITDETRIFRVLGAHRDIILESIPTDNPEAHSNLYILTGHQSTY

[28] = molecular target: Platelet-derived growth factor receptor beta (Homo sapiens, UniProt P09619); type: functional;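 further: value comes from a kinome panel, with PDGFRB tested as one panel member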
[29] = molecular target: Proto-oncogene tyrosine-protein kinase receptor Ret (Homo sapiens, UniProt P07949); type: functional;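 further: measured within a kinome-wide profiling panel, RET as the panel member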

SMILES: O=C1C=C(NCc2ccccc2)c2ccccc2C1=O
- EC50 [1]: 63.3 µM (inactive)

SMILES: O=C(O)c1[nH]c2ccccc2c1C(c1cc(Cl)cc([N+](=O)[O-])c1O)c1c(C(=O)O)[nH]c2ccccc12
- IC50 [2]: 9.77 µM (active)
- IC50 [3]: 26.6 µM (inactive)
- EC50 [4]: 14.9 µM (active)
- IC50 [5]: > 122 µM (inactive)
- IC50 [6]: 3.46 µM (active)

- Ki [7]: > 10 µM (inactive)
- Ki [8]: > 10 µM (inactive)
- Ki [9]: > 1.26 µM (inactive)
- Ki [10]: > 5.01 µM (inactive)
- Ki [11]: > 6.31 µM (inactive)
- Ki [12]: > 2.51 µM (inactive)
- Ki [13]: > 7.94 µM (inactive)
- Ki [14]: > 7.94 µM (inactive)
- Ki [15]: > 1.58 µM (inactive)
- Ki [16]: > 5.01 µM (inactive)
- Ki [17]: > 2 µM (inactive)
- Ki [18]: > 1.58 µM (inactive)
- Ki [19]: > 0.794 µM (inactive)
- Ki [20]: 1.26 µM (active)
SMILES: CCOC(=O)c1cn(-c2ccc(O)cc2C)c2cc(-c3ccncc3)ccc2c1=O

- Ki [21]: > 3.16 µM (inactive)
- Ki [10]: > 5.01 µM (inactive)
- Ki [22]: > 2.51 µM (inactive)
- Ki [12]: 0.0631 µM (active)
- Ki [23]: > 6.31 µM (inactive)
- Ki [15]: > 2.51 µM (inactive)
- Ki [24]: > 3.16 µM (inactive)
- Ki [25]: > 2.51 µM (inactive)
- Ki [26]: > 3.98 µM (inactive)
- Ki [27]: > 2.51 µM (inactive)
- Ki [28]: 0.158 µM (active)
- Ki [19]: > 6.31 µM (inactive)
- Ki [20]: > 1.26 µM (inactive)
- Ki [29]: 0.00316 µM (active)
SMILES: Cc1cc(=O)[nH]nc1-c1ccc(NC(=O)Nc2cc(C(F)(F)F)ccc2F)c(Cl)c1
